{"source": "patent US20210219550A1", "about": "“PEST CONTROL COMPOSITIONS AND USES THEREOF” (Flagship Pioneering Innovations VI, LLC, priority 2018, published 2021)", "key": {"E. coli": {"system": "E. coli", "test": "Treatment of bacteria and yeast with DOX-loaded grapefruit PMPs (kinetic OD600, relative OD)", "settings": "effective DOX 5-100 μM", "protocol": "(§1) Bacteria and yeast strains were maintained as indicated by the supplier: E. coli(ATCC, #25922) was grown on Trypticase Soy Agar/broth at 37° C., Pseudomonas aeruginosa (ATCC) was grown on Tryptic soy Agar/broth with […] rifampicin at 37° C., Pseudomonas syringae pv. tomato str. DC3000 bacteria (ATCC, #BAA-871) was grown on King's Medium B agar with […] rifampicin at 30° C., and Saccharomyces cerevisiae (ATCC, #9763) was grown on yeast extract peptone dextrose broth (YPD) and maintained at 30° C. Prior to treatment, fresh one day cultures were grown overnight, the OD (600 nm) was adjusted to 0.1 OD with medium prior to use, and bacteria/yeast were transferred to a 96 well plate for treatment (duplicate samples, 100 μl/well). […] Plates were covered with aluminum foil, and incubated at 37° C. (E. coli, P. aeruginosa), or 30° C. (S. cerevisiae, P. syringae) and agitated at 220 rpm.\n(§2) A kinetic Absorbance measurement at 600 nm was performed on a SpectraMax® spectrophotometer to monitor the OD of the cultures at t=0 h, t=1 h, t=2 h, t=3 h, t=4.5 h, t=16 h (E. coli, P. aeruginosa) or t=0.5 h, t=1.5 h, t=2.5 h, t=3.5 h, t=4 h, t=16 h (P. syringae, S. cerevisiae).\n(§3) To compare the cytotoxic effect of PMP-DOX treatment on different bacterial and yeast strains, within each treatment group the relative OD was determined as compared to the untreated control (set to 100%)."}, "Pseudomonas aeruginosa": {"system": "Pseudomonas aeruginosa", "test": "Treatment of bacteria and yeast with DOX-loaded grapefruit PMPs (kinetic OD600, relative OD)", "settings": "P. aeruginosa, effective DOX 5-100 μM", "protocol": "as §1, §2, §3"}, "[1]": {"system": "Pseudomonas syringae pv. tomato str. DC3000", "test": "Treatment of bacteria and yeast with DOX-loaded grapefruit PMPs (kinetic OD600, relative OD)", "settings": "P. syringae, effective DOX 5-100 μM", "protocol": "as §1, §2, §3"}, "Saccharomyces cerevisiae": {"system": "Saccharomyces cerevisiae", "test": "Treatment of bacteria and yeast with DOX-loaded grapefruit PMPs (kinetic OD600, relative OD)", "settings": "S. cerevisiae, effective DOX 5-100 μM", "protocol": "as §1, §2, §3"}, "[2]": {"system": "Arabidopsis thaliana seedlings", "test": "Treatment of Arabidopsis thaliana seedlings with doxorubicin-loaded PMPs (cytotoxicity: leaf vigor, leaf color, root length)", "format": "in vivo", "settings": "7-day old seedlings, 24 hours treatment, 3 further days; doses tested 25, 50, 100 μM", "procedure": "Wild type Arabidopsis thaliana Col-0 seeds were obtained from the ABRC, surface sterilized with 50% bleach, stratified for 1-3 d at 4° C., and germinated on half-strength (0.5×) Murashige and Skoog (MS) medium supplemented with 0.5% sucrose, 2.5 mM MES, pH 5.6, containing 0.8% agar, with a photoperiod of 16 h light 23° C./8 h dark 21° C.\nTo test whether PMPs can deliver a small molecule cargo in planta, 7-day old Arabidopsis thaliana seedlings were transferred to 0.5× liquid MS medium in a 24 well plate (1 seedling per well), and treated with free DOX or DOX-loaded PMPs with an encapsulated DOX dose of 0 (negative control), 25 μM, 50 μM and 100 μM. The plate was covered with aluminum foil and incubated for 24 hours. DOX-containing medium was removed, the seedlings were washed two times with ½X MS medium, and fresh medium was added. Seedlings were incubated for an additional 3 days under a normal photoperiod (16 h light 23° C./8 h dark 21° C.). Next, seedlings were removed from the plate and towel-dried for imaging and cytotoxicity was assessed by analyzing leaf vigor, leaf color and root length. Cytotoxicity is defined by shortening of the roots, loss of leaf vigor, and leaf discoloration (yellow instead of green) when compared to an untreated seedling control."}}, "data": [{"smiles": "COc1cccc2c1C(=O)c1c(O)c3c(c(O)c1C2=O)C[C@@](O)(C(=O)CO)C[C@@H]3O[C@H]1C[C@H](N)[C@H](O)[C@H](C)O1", "note": "[free doxorubicin, doxorubicin]", "values": [{"measurement": "cytotoxic effect (relative OD vs untreated control), in words", "setting": "E. coli", "value": "cytotoxicity is induced earlier than with PMP-DOX delivery"}, {"measurement": "cytotoxic effect (relative OD vs untreated control), in words", "setting": "Pseudomonas aeruginosa", "value": "cytotoxicity is induced earlier than with PMP-DOX delivery"}, {"measurement": "cytotoxic effect (relative OD vs untreated control), in words", "setting": "[1]", "value": "cytotoxicity is induced earlier than with PMP-DOX delivery"}, {"measurement": "cytotoxic effect (relative OD vs untreated control), in words", "setting": "Saccharomyces cerevisiae", "value": "cytotoxicity is induced earlier than with PMP-DOX delivery"}, {"measurement": "DOX dose at which cytotoxicity was shown", "setting": "[2]", "value": 100, "unit": "µM"}]}]}
